From patent US9174942B2, “IDO inhibitors” (NewLink Genetics Corporation, priority 2008, dated 2015)

target: T1, purified human IDO protein (Homo sapiens, UniProt P14902, E119G/P110S); assay: Enzymatic IDO assay (kynurenine formation, absorbance at 480 nm); assay type: biochemical; conditions: recombinant human IDO, 200 μM L-tryptophan, pH 6.5; reported in ranges
T1 construct: 6-Histidine tag (C); made in house; host or cells: E. coli M15(pREP4) transformed with pQE70-hIDO
Experimental: The inhibitors were initially diluted in DMSO at 100 mM and were diluted in potassium phosphate 50 mM, added to the reaction mixture at final concentrations raging from 1 mM to 5 nM and preincubated with the enzyme for 5 min at 25° C. The reaction was started by addition of L-tryptophan to 200 μM and incubated 15 min at 37° C. The reaction was stopped by addition of 0.5 vol of 30% trichloroacetic acid and incubated 30 min at 60° C. to hydrolyze N-formylkynurenine to kynurenine. The reaction was centrifuged at 3400 g for 5 min to remove precipitated protein and the supernatant was reacted with 2% (w/v) of p-dimethylaminobenzaldehyde in acetic acid. The reaction was incubated 10 min at 25° C. and read at 480 nm in a spectrophotometer. […] Nonlinear regressions and determination of the IC50 values were performed using the GraphPad Prism 4 software.

T1 sequence (P14902 whole entry P110S/E119G): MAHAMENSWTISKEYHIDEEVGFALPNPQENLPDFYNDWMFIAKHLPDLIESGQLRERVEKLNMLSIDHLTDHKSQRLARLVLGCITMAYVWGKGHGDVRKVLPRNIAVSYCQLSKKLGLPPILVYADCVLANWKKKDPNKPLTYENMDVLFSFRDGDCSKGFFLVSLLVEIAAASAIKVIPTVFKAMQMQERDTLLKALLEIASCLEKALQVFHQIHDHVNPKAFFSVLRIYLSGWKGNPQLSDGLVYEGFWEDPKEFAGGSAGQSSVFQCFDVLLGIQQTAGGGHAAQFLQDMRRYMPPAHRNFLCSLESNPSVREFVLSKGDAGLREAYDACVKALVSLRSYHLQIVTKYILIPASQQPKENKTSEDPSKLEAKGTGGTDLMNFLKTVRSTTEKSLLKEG

First: CC(=O)N1CCC(CCOc2ccccc2-c2c[nH]cn2)CC1 [Compound 151, 1-(4-(2-(2-(1H-imidazol-4-yl)phenoxy)ethyl)piperidin-1-yl)ethanone]
Second: c1ccc(-c2c[nH]cn2)c(OCC2CCNCC2)c1 [Compound 157, 4-((2-(1H-imidazol-4-yl)phenoxy)methyl)piperidine]
The IC50 of the first is lower: < 20 µM for the first, 20 to 100 µM for the second.

First: CC(C)(C)OC(=O)Nc1ccccc1-c1c[nH]cn1 [Compound 152, tert-butyl 2-(1H-imidazol-4-yl)phenylcarbamate]
Second: O=C(O)c1ccccc1-c1c[nH]cn1 [Compound 153, 2-(1H-imidazol-4-yl)benzoic acid]
The IC50 of the first is lower: < 20 µM for the first, 100 to 500 µM for the second.

First: CC(=O)NCc1ccc(COc2ccccc2-c2c[nH]cn2)cc1 [Compound 154, N-(4-((2-(1H-imidazol-4-yl)phenoxy)methyl)benzyl) acetamide]
Second: Oc1ccc(CCOc2ccccc2-c2c[nH]cn2)cc1 [Compound 158, 4-(2-(2-(1H-imidazol-4-yl)phenoxy)ethyl)phenol]
The IC50 of the first is higher: 20 to 100 µM for the first, < 20 µM for the second.

Compared with `Nc1ccccc1-c1cnc[nH]1` [Compound 155, 2-(1H-imidazol-4-yl)aniline], `CC(C)(CCOc1ccccc1-c1cnc[nH]1)CCn1ccnc1` [Compound 163, 5-(2-(5-(1H-imidazol-1-yl)-3,3-dimethylpentyloxy)phenyl)-1H-imidazole] is higher in IC50: 20 to 100 µM for the first, 100 to 500 µM for the second. The first is the more potent here.

First: Oc1ccc(C(F)(F)F)cc1-c1c[nH]cn1 [Compound 156, 2-(1H-imidazol-4-yl)-4-(trifluoromethyl)phenol]
Second: CC(C)(CCO)CCOc1ccccc1-c1c[nH]cn1 [Compound 167, 5-(2-(1H-imidazol-4-yl)phenoxy)-3,3-dimethylpentan-1-ol]
The IC50 of the first is lower: < 20 µM for the first, 20 to 100 µM for the second.

Compared with `O=C1c2ccccc2CC1Oc1ccccc1-c1c[nH]cn1` (stereo not drawn) [Compound 159, 2-(2-(1H-imidazol-4-yl)phenoxy)-2,3-dihydro-1H-inden-1-one], `CC(=O)Nc1ccccc1CCOc1ccccc1-c1c[nH]cn1` [Compound 165, N-(2-(2-(2-(1H-imidazol-4-yl)phenoxy)ethyl)phenyl) acetamide] is higher in IC50: 20 to 100 µM for the first, 100 to 500 µM for the second. The first is the more potent here.

`N#CC1CCC(=CCOc2ccccc2-c2c[nH]cn2)CC1` (stereo not drawn) [Compound 160, 4-(2-(2-(1H-imidazol-4-yl)phenoxy)ethylidene)cyclohexanecarbonitrile] and `NC(=O)C1CCC(=CCOc2ccccc2-c2c[nH]cn2)CC1` (stereo not drawn) [Compound 168, 4-(2-(2-(1H-imidazol-4-yl)phenoxy)ethylidene)cyclohexanecarboxamide] cannot be ordered by IC50: < 20 µM for the first, < 20 µM for the second.

First: CC(C)(CCOc1ccccc1-c1c[nH]cn1)CCN1CCOCC1 [Compound 161, 4-(5-(2-(1H-imidazol-4-yl)phenoxy)-3,3-dimethylpentyl) morpholine]
Second: CC(C)(CCNCc1ccccc1)CCOc1ccccc1-c1c[nH]cn1 [Compound 166, 5-(2-(1H-imidazol-4-yl)phenoxy)-N-benzyl-3,3-dimethylpentan-1-amine]
The IC50 of the first is higher: 20 to 100 µM for the first, < 20 µM for the second. The second is the more potent here.

First: CC(C)(CCOc1ccccc1-c1c[nH]cn1)CCn1c(=O)c(F)cn([C@@H]2O[C@H](CO)[C@@H](O)[C@H]2O)c1=O [Compound 162, 3-(5-(2-(1H-imidazol-4-yl)phenoxy)-3,3-dimethylpentyl)-1-((2R,3R,4S,5R)-3,4-dihydroxy-5-(hydroxymethyl)tetrahydrofuran-2-yl)-5-fluoropyrimidine-2,4(1H,3H)-dione]
Second: CC(C)(CCNc1ccncc1)CCOc1ccccc1-c1cnc[nH]1 [Compound 164, N-(5-(2-(1H-imidazol-5-yl)phenoxy)-3,3-dimethylpentyl) pyridin-4-amine]
The IC50 of the first is lower: < 20 µM for the first, 20 to 100 µM for the second.
